Where two headings read alike, the source gives them in different places.

Assay in all cases: biochemical
What all share (design): Eurofins KinaseProfiler full panel at Km ATP, residual kinase activity (%) relative to DMSO

One test has as its target T1, SIK(h) (Homo sapiens, UniProt P57059).
T1 construct: gene SIK1
In short, it runs like this: (§1)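 Radiometric kinase activity assays were run with ATP at Km and compounds at 10 µM, and remaining activity (%) was reported. A separate competitive binding screen measured DNA-tagged kinase displaced from immobilized active-site ligands by qPCR, giving percent kinase still bound at 10 µM compound in DMSO.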

The next test addresses T2, SGK3(h) (Homo sapiens, UniProt Q96BR1).
T2 sequence (Q96BR1 1-496): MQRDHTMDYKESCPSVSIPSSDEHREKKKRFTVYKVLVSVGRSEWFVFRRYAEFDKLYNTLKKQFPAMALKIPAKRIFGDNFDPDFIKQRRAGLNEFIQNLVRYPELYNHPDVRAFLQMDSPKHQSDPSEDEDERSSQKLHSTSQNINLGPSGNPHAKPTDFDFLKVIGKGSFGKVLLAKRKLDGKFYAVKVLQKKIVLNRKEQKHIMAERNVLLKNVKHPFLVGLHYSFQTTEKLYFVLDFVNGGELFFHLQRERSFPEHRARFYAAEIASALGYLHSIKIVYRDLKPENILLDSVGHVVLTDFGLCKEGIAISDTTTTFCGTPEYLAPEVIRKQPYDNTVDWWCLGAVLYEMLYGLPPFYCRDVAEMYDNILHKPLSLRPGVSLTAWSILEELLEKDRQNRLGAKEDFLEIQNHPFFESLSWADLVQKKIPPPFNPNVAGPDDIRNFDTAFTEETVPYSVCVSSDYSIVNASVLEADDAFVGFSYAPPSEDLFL
In short, it runs like this:
as §1

Another test deals with T3, GCK(h) (Homo sapiens, UniProt Q12851).
T3 construct: gene MAP4K2
T3 sequence (Q12851 1-820): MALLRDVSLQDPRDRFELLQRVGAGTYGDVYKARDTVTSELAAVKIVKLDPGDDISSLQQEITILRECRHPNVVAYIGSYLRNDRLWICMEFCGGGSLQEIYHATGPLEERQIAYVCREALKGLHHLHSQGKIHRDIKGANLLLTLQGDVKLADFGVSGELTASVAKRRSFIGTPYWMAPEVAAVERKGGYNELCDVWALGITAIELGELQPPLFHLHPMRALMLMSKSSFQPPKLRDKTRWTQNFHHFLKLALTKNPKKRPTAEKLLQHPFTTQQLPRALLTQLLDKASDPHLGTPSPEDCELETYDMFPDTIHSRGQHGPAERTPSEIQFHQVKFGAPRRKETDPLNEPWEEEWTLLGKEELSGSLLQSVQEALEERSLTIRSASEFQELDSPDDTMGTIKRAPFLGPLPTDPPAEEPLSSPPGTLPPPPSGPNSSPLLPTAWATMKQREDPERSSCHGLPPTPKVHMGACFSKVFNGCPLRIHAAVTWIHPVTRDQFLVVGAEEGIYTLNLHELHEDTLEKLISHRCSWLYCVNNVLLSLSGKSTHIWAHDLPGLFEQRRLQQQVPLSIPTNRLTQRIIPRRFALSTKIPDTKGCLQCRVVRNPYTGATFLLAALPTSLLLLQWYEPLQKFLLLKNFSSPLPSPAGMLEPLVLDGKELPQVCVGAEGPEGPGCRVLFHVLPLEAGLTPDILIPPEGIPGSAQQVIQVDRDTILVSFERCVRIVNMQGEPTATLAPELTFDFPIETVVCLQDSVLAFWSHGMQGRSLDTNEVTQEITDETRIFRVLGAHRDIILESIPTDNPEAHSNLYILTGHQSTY
In short, it runs like this:
as §1

For another test, the target named is T4, DCAMKL2(h) (Homo sapiens, UniProt Q8N568).
T4 construct: gene DCLK2
T4 sequence (Q8N568 1-766): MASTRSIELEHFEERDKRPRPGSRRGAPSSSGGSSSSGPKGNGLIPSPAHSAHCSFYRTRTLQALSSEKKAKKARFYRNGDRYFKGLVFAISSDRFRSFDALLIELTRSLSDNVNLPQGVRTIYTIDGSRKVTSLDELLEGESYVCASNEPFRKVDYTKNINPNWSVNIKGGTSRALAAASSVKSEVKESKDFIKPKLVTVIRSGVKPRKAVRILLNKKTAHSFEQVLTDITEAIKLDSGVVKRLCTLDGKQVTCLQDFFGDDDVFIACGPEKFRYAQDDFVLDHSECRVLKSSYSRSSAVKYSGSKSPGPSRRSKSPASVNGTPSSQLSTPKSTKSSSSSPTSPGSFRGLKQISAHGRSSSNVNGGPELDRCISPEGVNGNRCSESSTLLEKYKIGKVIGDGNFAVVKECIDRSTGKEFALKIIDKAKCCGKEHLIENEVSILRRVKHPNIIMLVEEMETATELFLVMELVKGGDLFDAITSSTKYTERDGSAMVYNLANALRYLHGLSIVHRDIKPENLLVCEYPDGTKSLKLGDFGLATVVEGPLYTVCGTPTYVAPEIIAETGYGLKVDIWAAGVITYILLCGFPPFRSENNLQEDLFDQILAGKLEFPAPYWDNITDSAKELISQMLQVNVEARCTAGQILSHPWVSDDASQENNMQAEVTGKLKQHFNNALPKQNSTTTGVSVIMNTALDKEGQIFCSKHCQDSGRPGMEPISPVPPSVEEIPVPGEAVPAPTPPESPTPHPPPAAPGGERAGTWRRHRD
Put shortly: as §1

The target of test [1] is T5, PI3 Kinase (p110a/p85a)(h) (Homo sapiens, UniProt P42336).
T5 construct: gene PIK3CA
In short, it runs like this: as §1

A further test has as its target T6, TrkA(h) (Homo sapiens, UniProt P04629).
T6 construct: gene NTRK1
In short, it runs like this: as §1

[2] abbreviates: read-out: Residual activity (%) Spautin-1 5aa.
Where [3] appears, read: read-out: Residual activity (%) 5as.
The mark [4] stands for this setting: read-out: Residual activity (%) 5at.
Where [5] appears, read: read-out: Residual activity (%) 5ay.

T5 sequence (P42336 whole entry): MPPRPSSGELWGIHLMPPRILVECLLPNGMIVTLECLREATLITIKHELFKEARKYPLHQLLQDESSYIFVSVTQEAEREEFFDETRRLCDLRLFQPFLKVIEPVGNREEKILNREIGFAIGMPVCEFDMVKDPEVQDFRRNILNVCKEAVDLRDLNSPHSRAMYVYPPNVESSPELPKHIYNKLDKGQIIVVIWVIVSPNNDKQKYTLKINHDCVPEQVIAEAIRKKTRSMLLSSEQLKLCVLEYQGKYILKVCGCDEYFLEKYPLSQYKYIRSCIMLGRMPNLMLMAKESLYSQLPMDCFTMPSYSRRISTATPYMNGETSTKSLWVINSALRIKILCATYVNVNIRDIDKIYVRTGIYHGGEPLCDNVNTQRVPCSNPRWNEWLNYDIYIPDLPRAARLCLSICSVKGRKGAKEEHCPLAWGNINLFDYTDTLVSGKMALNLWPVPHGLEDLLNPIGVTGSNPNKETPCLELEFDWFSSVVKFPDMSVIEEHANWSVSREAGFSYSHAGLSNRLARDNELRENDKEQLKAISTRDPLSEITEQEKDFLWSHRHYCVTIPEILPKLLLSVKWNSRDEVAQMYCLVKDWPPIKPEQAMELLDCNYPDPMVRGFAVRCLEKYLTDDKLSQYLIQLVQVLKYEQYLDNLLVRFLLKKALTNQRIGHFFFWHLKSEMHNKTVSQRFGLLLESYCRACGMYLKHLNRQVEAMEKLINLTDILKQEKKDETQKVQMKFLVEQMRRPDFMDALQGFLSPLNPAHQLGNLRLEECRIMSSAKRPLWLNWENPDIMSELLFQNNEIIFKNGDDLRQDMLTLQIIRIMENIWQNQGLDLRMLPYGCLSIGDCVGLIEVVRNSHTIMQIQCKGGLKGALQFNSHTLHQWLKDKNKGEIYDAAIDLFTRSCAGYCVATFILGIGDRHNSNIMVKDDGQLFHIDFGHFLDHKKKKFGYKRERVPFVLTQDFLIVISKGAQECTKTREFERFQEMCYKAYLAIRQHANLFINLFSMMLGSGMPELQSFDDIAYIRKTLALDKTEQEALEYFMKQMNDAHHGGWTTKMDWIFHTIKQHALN
T5 sequence (P27986 whole entry partner): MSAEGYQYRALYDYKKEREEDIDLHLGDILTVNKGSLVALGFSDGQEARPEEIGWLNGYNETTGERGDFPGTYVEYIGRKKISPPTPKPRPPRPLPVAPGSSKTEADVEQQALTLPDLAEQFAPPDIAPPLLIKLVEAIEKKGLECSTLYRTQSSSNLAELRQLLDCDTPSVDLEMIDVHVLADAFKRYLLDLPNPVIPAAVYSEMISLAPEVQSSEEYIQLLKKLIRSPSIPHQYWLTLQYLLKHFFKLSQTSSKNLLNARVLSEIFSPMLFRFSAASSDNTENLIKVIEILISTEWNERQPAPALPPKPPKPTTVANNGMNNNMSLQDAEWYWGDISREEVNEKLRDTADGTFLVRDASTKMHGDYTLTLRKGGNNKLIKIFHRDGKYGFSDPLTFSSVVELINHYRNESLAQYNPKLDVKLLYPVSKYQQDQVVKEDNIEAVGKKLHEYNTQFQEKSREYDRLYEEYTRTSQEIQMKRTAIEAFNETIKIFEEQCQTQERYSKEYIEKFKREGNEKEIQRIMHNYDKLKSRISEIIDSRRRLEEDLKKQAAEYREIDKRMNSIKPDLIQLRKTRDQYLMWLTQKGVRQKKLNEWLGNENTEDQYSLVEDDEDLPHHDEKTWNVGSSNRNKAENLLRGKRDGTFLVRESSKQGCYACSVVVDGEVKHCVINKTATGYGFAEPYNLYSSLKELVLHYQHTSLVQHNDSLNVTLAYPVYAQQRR
T6 sequence (P04629 whole entry): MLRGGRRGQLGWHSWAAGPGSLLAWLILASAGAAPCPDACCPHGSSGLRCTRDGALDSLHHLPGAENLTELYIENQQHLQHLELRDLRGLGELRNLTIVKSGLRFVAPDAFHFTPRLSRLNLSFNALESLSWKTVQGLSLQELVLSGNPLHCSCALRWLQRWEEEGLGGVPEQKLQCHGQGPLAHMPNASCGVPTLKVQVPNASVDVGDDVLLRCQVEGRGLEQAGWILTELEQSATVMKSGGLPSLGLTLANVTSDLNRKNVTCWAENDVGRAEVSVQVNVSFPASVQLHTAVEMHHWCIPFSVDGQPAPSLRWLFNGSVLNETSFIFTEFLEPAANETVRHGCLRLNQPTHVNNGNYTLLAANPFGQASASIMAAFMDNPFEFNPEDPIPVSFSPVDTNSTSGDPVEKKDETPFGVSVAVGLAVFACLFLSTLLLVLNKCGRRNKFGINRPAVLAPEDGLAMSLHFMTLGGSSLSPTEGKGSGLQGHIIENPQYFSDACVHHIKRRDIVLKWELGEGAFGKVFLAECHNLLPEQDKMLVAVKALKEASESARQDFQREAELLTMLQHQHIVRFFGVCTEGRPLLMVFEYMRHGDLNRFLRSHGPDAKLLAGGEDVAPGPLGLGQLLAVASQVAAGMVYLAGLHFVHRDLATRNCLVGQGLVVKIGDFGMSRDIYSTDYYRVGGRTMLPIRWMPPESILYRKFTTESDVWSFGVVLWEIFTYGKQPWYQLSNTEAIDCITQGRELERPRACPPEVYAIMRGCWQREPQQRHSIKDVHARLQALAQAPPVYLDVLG
T1 sequence (P57059 whole entry): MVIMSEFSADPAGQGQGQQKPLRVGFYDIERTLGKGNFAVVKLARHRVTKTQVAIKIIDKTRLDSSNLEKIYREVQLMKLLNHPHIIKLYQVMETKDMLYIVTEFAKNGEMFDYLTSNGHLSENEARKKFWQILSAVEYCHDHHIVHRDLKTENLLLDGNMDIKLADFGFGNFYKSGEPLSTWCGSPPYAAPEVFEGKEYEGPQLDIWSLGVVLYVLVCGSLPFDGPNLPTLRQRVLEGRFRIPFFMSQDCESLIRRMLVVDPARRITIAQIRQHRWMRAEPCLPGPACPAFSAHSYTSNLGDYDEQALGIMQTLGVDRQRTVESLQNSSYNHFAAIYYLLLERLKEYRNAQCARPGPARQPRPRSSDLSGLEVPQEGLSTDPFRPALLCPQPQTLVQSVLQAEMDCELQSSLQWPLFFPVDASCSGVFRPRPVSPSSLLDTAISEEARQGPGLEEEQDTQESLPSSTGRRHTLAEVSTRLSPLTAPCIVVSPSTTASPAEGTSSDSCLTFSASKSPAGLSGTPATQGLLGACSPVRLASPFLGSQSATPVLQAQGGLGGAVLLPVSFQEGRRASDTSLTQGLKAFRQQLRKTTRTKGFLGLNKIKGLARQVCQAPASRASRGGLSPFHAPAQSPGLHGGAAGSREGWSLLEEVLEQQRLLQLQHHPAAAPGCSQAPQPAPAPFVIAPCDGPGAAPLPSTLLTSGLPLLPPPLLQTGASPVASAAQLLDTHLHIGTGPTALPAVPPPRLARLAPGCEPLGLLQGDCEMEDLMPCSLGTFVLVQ

For the molecule `Fc1ccc(CNc2ncnc3ccc(F)cc23)cc1` [5aa, 6-Fluoro-N-(4-fluorobenzyl)-4-Quinazolinamine], the remaining activity at 10 µM on SIK(h) (setting [2]) is 98%; at SGK3(h) (setting [2]), 95%; on GCK(h) (setting [2]), 109%; on DCAMKL2(h) (setting [2]) it was 81%; in test [1] (setting [2]), 100%; on TrkA(h) (setting [2]), 65%.
On to `Fc1ccc(CCNc2ncnc3ccc(F)cc23)cc1` [5as, 6-Fluoro-N-[2-(4-Fluorophenyl)Ethyl]-4-Quinazolinamine], for which the remaining activity at 10 µM stood at 90% on SIK(h) (setting [3]); 88% at SGK3(h) (setting [3]); 88% at GCK(h) (setting [3]); 64% on DCAMKL2(h) (setting [3]); 103% in test [1] (setting [3]); 87% at TrkA(h) (setting [3]).
In the case of `Fc1ccc2ncnc(NCCc3ccc(Cl)cc3)c2c1` [5at, N-[2-(4-Chlorophenyl)Ethyl]-6-Fluoro-4-Quinazolinamine], the remaining activity at 10 µM at SIK(h) (setting [4]) was 86%; at SGK3(h) (setting [4]) it was 93%; at GCK(h) (setting [4]) it was 87%; at DCAMKL2(h) (setting [4]), 57%; in test [1] (setting [4]), 94%; at TrkA(h) (setting [4]), 60%.
Regarding `COc1ccc2ncnc(Nc3cccc(F)c3)c2c1` [5ay, N-(3-Fluorophenyl)-6-Methoxy-4-Quinazolinamine], the remaining activity at 10 µM on SIK(h) (setting [5]) worked out at 74%; at SGK3(h) (setting [5]), 91%; on GCK(h) (setting [5]) it was 60%; at DCAMKL2(h) (setting [5]), 80%; in test [1] (setting [5]) it was 101%; at TrkA(h) (setting [5]) it was 70%.

Values taken from article PMC7827406, “Structure–Activity Relationship (SAR) Study of Spautin-1 to Entail the Discovery of Novel NEK4 Inhibitors” (International Journal of Molecular Sciences, 2021).
